Values joined by “and” are separate entries in the source; they are usually repeats but may differ in a detail not shown here. Identical values can stand only once. Like-named read-outs stand apart in the source and are kept apart here.
How the values were obtained:
[1] = test system: Trychophyton rubrum ATCC 28188; experiment: organism not typed; assay type: cell-based; conditions: read-out: Minimum Fungicidal Concentration, Trychophyton rubrum ATCC 28188
Procedure: (§1) The anti-fungal activity of Domain III derived peptides was evaluated against a variety of fungal species, including species of Candida. Cryptococcus, Fusarium, Trichophyton, and Aspergillus, by an additional assay protocol utilizing Alamar Blue. Alamar Blue is an indicator dye formulated to measure quantitatively the proliferation of a variety of human or animal cells, bacteria, or fungi. It consists of an oxidation-reduction (REDOX) indicator that yields a colorimetric change in response to metabolic activity. For these experiments, species of Candida and Cryptococcus were grown in Sabouraud's dextrose broth (SDB) overnight. Strains of filamentous fungi (Aspergilius, Fusanum, Trichophyton) were obtained by irrigation of a confluent culture from a petri dish. Cells were washed and adjusted to a concentration of 5.0×10^3/mL in fresh SDB. […] Controls included amphotericin B, fluconazole, ketoconazole and griseofulvin. Antifungal drugs were also diluted in the same manner. Assays were performed in 96-well microuiter plates. […] The wells to be plated were determined by OD590 readings. The lowest concentration of peptide which maintained the blue color (or OD reading) of the blank was chosen along with the next two higher concentrations. Plates were allowed to grow for 18-48 hours depending on the rate of growth of each fungus. Minimal fungicidal activity (MFC) was determined as a 99.9% killing of the starting inoculum.

Aspergillus ATCC 13073 = experiment: microbe, parasite or virus in culture; assay type: cell-based; conditions: Aspergillus, ATCC13073; read-out: Minimum Fungicidal Concentration, Aspergillus ATCC 13073
Procedure: as §1

[2] = test system: Candida albicans (SLU-1 and ATCC strains); experiment: microbe, parasite or virus in culture; assay type: cell-based; conditions: Candida albicans
Procedure: as §1

[3] = test system: Aspergillus niger ATCC 16404; experiment: microbe, parasite or virus in culture; assay type: cell-based; conditions: Aspergillus niger, ATCC16404; read-out: Minimum Fungicidal Concentration, Aspergillus niger ATCC 16404
Procedure: as §1

[4] = test system: Fusarium solani ATCC 36031; experiment: microbe, parasite or virus in culture; assay type: cell-based; conditions: Fusarium solani, ATCC36031; read-out: Minimum Fungicidal Concentration, Fusarium solani ATCC 36031
Procedure: as §1

[5] = test system: Candida glabrata ATCC 2001; experiment: microbe, parasite or virus in culture; assay type: cell-based; conditions: Nakaseomyces glabratus, ATCC2001; read-out: Minimum Fungicidal Concentration, Candida glabrata ATCC 2001
Procedure: as §1

[6] = test system: Candida parapsilosis ATCC 22019; experiment: microbe, parasite or virus in culture; assay type: cell-based; conditions: Lodderomyces parapsilosis, ATCC22019; read-out: Minimum Fungicidal Concentration, Candida parapsilosis ATCC 22019
Procedure: as §1

[7] = test system: Cryptococcus neoformans ATCC 13690; experiment: microbe, parasite or virus in culture; assay type: cell-based; conditions: Cryptococcus neoformans, ATCC13690; read-out: Minimum Fungicidal Concentration, Cryptococcus neoformans ATCC 13690
Procedure: as §1

[8] = test system: C. albicans (CA-1, Strain SLU-1); experiment: Radial diffusion assay; assay type: cell-based, Candida albicans; conditions: pmoles of peptide added to well to achieve a 30 mm^2 zone, PROBIT analysis; crude or purified (P′) peptide
Summary of the method: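 Yeast at 1×10^6 CFU/mL in agarose underlayer (3% Sabouraud, 10 mM sodium phosphate pH 7.4); 2-fold peptide dilutions in D-PBS from ~1 mg/mL loaded into wells, 3 h at 37° C, then nutrient overlayer overnight. Value: pmol/well giving 30 mm^2 net clear zone, by PROBIT regression.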

[9] = test system: C. albicans (SLU-1 strain); experiment: Survival of mice systemically infected with Candida albicans; assay type: in vivo, mouse; conditions: 1.24×10^5 C. albicans i.v.; 3 doses i.v. (Day 0, 2, 4); 10 mg/kg XMP.36, 5 mg/kg XMP.97, 10 mg/kg XMP.102, 1 mg/kg amphotericin B; FIG. 4
Procedure: Groups of 15 male DBA/2J mice at age 6-8 weeks (Jackson Laboratory, Bar Harbor, Me.) were inoculated with 1.24×10^5 C. albicans (SLU-1 strain as described in Example 2) by intravenous injection into the tail vein. Cells were prepared for animal injection as follows. A single colony was selected and used to inoculate a 5 mL tube of Sabouraud dextrose broth. Incubation was at 30° C. with shaking to allow aeration for a period of 15-18 hours. Four mL of the overnight culture were added to 100 mL of fresh Sabouraud dextrose broth (1:25 dilution) and incubated for 4 hours. The 100 mL culture was pelleted at 1,500×g for 5 minutes. Cells were washed twice by adding 20 mL D-PBS, vortexing and re-centrifuging. Cells were collected in one tube and a sample is diluted 1:10 to be measured by OD570 (1 OD unit=3×10^7 CFU/mL). The cells were diluted to the desired dose in D-PBS and kept at 4° C. until used. Doses were confirmed by performing serial ten-fold dilutions and plating 50 μl per dilution on Sabouraud dextrose agar. Colonies were counted the following day after overnight incubation at 37° C. A […] culture yielded approximately 1×10^9 CFU/mL.
Immediately after fungal challenge, the mice were intravenously injected via the tail vein with a 0.1 mL volume of 10 mg/kg XMP.36, 5 mg/kg XMP.97, 10 mg/kg XMP.102, 1 mg/kg amphotericin B (Sigma, St. Louis, Mo.), or phosphate buffered saline (PBS) as a control. Treatment with the same amounts of peptides, amphotericin B or PBS was repeated at Day 2 and Day 4 (except that the second dose of XMP.36 was given at a dose of 5 mg/kg). Mice were monitored twice daily for mortality until termination of the study at Day 28. […] In FIG. 4, the symbol “X” represents survival after treatment with amphotericin B; open squares, treatment with XMP.97; open circles, treatment with XMP.36; open diamonds, treatment with XMP.102; and open triangles, treatment with buffer. Statistical significance was evaluated using the Lifetest Survival Curve analysis. [Lawless, Statistical Models and Methods for Lifetime Data, John Wiley & Sons, New York (1982).] The duration and almost linear decline in survival is analogous to human opportunistic candidiasis.
In additional 3-dose studies, groups of 15 mice were injected with a fungal challenge of 0.5×10^5 Candida cells, prepared for injection as described above, followed by treatment at Day 0, Day 2 and Day 5 with a 0.1 mL volume of 10 mg/kg XMP.127, 5 mg/kg XMP.13, 5 mg/kg XMP.37, 1 mg/kg amphotericin B, or PBS as a control. […] In FIG. 5, the symbol “X” represents survival after treatment with amphotericin B; open circles, treatment with XMP.127; filled triangles, treatment with buffer; open squares, treatment with XMP.37; open triangles, treatment with XMP.13.
Further studies to determine the effectiveness of anti-fungal peptides were performed at an increased dosing regimen (6 doses rather than 3 doses as described above). Groups of 9 week-old male DBA/2J mice were inoculated with concentrations of 2.7×10^5 Candida cells (prepared as described above) by intravenous injection in the tail vein. Immediately after fungal challenge, the mice were treated with a 0.1 mL volume of 10 mg/kg XMP.284, 1 mg/kg amphotericin B or PBS as a control at Day 0, Day 2, Day 4, Day 7, Day 9 and Day 11. All amphotericin B-treated animals were protected.
Additional 6-dose experiments were conducted as described above, using inocula of 0.5-3.0×10^5 Candida cells and using 0.01, 0.05, 0.1, 0.5, 1.0 or 5.0 mg/kg doses of peptide.

[10] = test system: polyene-resistant (ATCC 38247), 5-fluorocytosine-resistant (ATCC 44373), azole-resistant (ATCC 62342), ketoconazole-resistant (ATCC 64124) C. albicans; experiment: Fungicidal activity on commercially-available drug-resistant Candida strains; assay type: cell-based, Candida albicans; conditions: ATCC 38247, 44373, 62342, 64124
Procedure: Further experiments were performed to determine the anti-fungal activity of Domain III derived peptides on commercially-available strains of Candida considered resistant to other anti-fungal agents: polyene-resistant C. albicans (ATCC Accession No. 38247), 5-fluorocytosine-resistant C. albicans (ATCC No. 44373), azole-resistant C. albicans (ATCC No. 62342), and ketoconazole-resistant C. albicans (ATCC No. 64124).

Candida glabrata = experiment: Radial diffusion assay, Candida species (Table 2); assay type: cell-based
Procedure: (§2) The anti-fungal activity of Domain III derived peptides was also evaluated in vitro against a variety of fungal species, including Candida glabrata, Candida krusei, Candida lusitaniae, Candida parapsilosis, and Candida tropicalis. For these experiments, one colony of each of the above-listed Candida strains was picked from a Sabouraud's dextrose agar (SDA) plate and inoculated into 5 mL of Sabouraud's dextrose broth (SDB, 2% dextrose and 1% neopeptone) or, for C. krusei, Yeast Malt broth (YM, Becton Dickenson, Cockeysville, Md., cat no. BL 11405) in 12 mL polyproplyene snap-cap tubes. The tube cultures were incubated overnight with shaking at 37° C.
(§3) Cultures were harvested when the OD570 of a 1:10 dilution was greater than or equal to the following values: 0.083 for Candida glabrata, 0.154 for Candida krusei, 0.117 for Candida lusitaniae, 0.076 for Candida parapsilosis, and 0.192 for Candida tropicalis. Cells were centrifuged for 7 minutes in an Eppendorf microfuge at 3,000 rpm (about 1,500 g). The cell pellet was resuspended in 1 mL PBS and approximately 1×10^7 cells in about 0.5 mL were added to 10 mL of cooled underlay agar (3% SBD, 1% agarose, 0.02% Tween 20, 10 mM sodium phosphate buffer, pH 7.4 at about 45° C.). The suspension was poured into square petri plates, allowed to solidify, and wells cut as described above.
(§4) Peptides were two-fold serially diluted with D-PBS from about 20 μL of a starting concentration of approximately 1 mg/mL. Five μL of peptide dilution were added per well and allowed to diffuse for at least about 30 minutes into the agar at […] (to allow complete diffusion). Then 10 mL of molten overlayer agarose (6% SDB, 1% agarose, 10 mM sodium phosphate buffer, pH 7.4 at about 45° C.) were added and the plates were incubated inverted at […] overnight. Plates were stained with a dilute Coomassie solution, inhibition zones were measured with calipers and net areas were calculated, then converted to pmole values by PROBIT analysis.

Candida krusei = experiment: Radial diffusion assay, Candida species (Table 2); assay type: cell-based
Procedure: as §2, §3, §4

Candida tropicalis = experiment: Radial diffusion assay, Candida species (Table 2); assay type: cell-based
Procedure: as §2, §3, §4

Candida lusitaniae = experiment: Radial diffusion assay, Candida species (Table 2); assay type: cell-based
Procedure: as §2, §3, §4

Candida parapsilosis = experiment: Radial diffusion assay, Candida species (Table 2); assay type: cell-based
Procedure: as §2, §3, §4

Candida albicans = experiment: Radial diffusion assay, Candida species (Table 2); assay type: cell-based; conditions: higher effective concentration of agarose than Table 1

**Q.** Which results are given for `OC(Cn1cncn1)(Cn1cncn1)c1ccc(F)cc1F` [Fluconazole, fluconazole]?
**A.** MFC [1]: > 10 µg/mL; MFC (Aspergillus ATCC 13073): > 50 µg/mL; MFC ([2]; ATCC10231, strain ATCC 10231, read-out: Minimum Fungicidal Concentration, Candida albicans ATCC 10231): > 10 µg/mL; MFC ([2]; ATCC18840, strain ATCC 18840, read-out: Minimum Fungicidal Concentration, Candida albicans ATCC 18840): > 10 µg/mL; MFC ([2]; ATCC26555, strain ATCC 26555, read-out: Minimum Fungicidal Concentration, Candida albicans ATCC 26555): > 10 µg/mL; MFC ([2]; ATCC44808, strain ATCC 44808, read-out: Minimum Fungicidal Concentration, Candida albicans ATCC 44808): > 10 µg/mL; MFC ([2]; ATCC90028, strain ATCC 90028, read-out: Minimum Fungicidal Concentration, Candida albicans ATCC 90028): > 10 µg/mL; MFC ([2]; strain SLU-1, read-out: Minimum Fungicidal Concentration, Candida albicans SLU-1): > 10 µg/mL; MFC [3]: > 10 µg/mL; MFC [4]: > 10 µg/mL; MFC [5]: > 10 µg/mL; MFC [6]: > 10 µg/mL; MFC [7]: > 10 µg/mL

**Q.** Which “C. albicans pmol/30 mm^2 zone” value [8] does the source give for H-KSKVGALIQLFHKK-NH2 [XMP.36] here?
**A.** Its value is 197 pmol/30 mm^2 zone and 231 pmol/30 mm^2 zone.

**Q.** What about the “mice survived until Day 28” value [9] of the same compound?
**A.** Its value is 33%.

**Q.** What about the “Fungicidal activity on resistant strains” value [10] of the same compound?
**A.** The value was “not reduced”.

**Q.** How did the “Anti-fungal activity: pmol/30 mm^2 zone, Candida glabrata” value (Candida glabrata) turn out when H-KSKVGVLIQLFHKK-NH2 [XMP.166] was run?
**A.** Its value is 2,100 pmol/30 mm^2 zone.

**Q.** And the “Anti-fungal activity: pmol/30 mm^2 zone, Candida krusei” value (Candida krusei)?
**A.** The value was 3,240 pmol/30 mm^2 zone.

**Q.** What about the “Anti-fungal activity: pmol/30 mm^2 zone, Candida tropicalis” value (Candida tropicalis) of the same compound?
**A.** The value was 864 pmol/30 mm^2 zone.

**Q.** What about the “Anti-fungal activity: pmol/30 mm^2 zone, Candida lusitaniae” value (Candida lusitaniae) of the same compound?
**A.** The value was 1,133 pmol/30 mm^2 zone.

**Q.** What about the “Anti-fungal activity: pmol/30 mm^2 zone, Candida parapsilosis” value (Candida parapsilosis) of the same compound?
**A.** Its value is 1,199 pmol/30 mm^2 zone.

**Q.** What about the “Anti-fungal activity: pmol/30 mm^2 zone, Candida albicans” value (Candida albicans) of the same compound?
**A.** The value was >3,079 pmol/30 mm^2 zone.

**Q.** What about the “C. albicans pmol/30 mm^2 zone” value [8] of the same compound?
**A.** The value was 171 pmol/30 mm^2 zone.

**Q.** What about the “Fungicidal activity on resistant strains” value [10] of the same compound?
**A.** The value was “not reduced”.

— patent publication US6664231B1, “Anti-fungal peptides” (priority 1993, dated 2003)
